# According to patent publication US11976083B2, “Inhibitors of peptidylarginine deiminases” (Gilead Sciences, Inc., priority 2020, dated 2024):
# Target: T1, human PAD4 (Homo sapiens, UniProt Q9UM07)
# T1 construct: human PAD4 (NM_012387), A2-P663, was PCR amplified; His-SUMO (N, cleaved yes); made in house; host or cells: E. coli BL21(DE3)
# Test: In vitro PAD4 BAEE biochemical assay
# Conditions: BAEE substrate 3 mM, 5 nM PAD4, 2 mM calcium chloride; geometric mean of multiple experiments
# Outline: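 Recombinant human PAD4 (5 nM final) with 2 mM CaCl2 was preincubated with compound 30 min at 25 °C in MOPS buffer pH 7.6, then reacted with 3 mM BAEE for 2 h at 25 °C. After EDTA stop, released ammonia was detected by o-phthalaldehyde/DTT fluorescence (ex 405/em 535 nm); IC50 from four-parameter fit, geometric mean.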
# T1 sequence (Q9UM07 2-663): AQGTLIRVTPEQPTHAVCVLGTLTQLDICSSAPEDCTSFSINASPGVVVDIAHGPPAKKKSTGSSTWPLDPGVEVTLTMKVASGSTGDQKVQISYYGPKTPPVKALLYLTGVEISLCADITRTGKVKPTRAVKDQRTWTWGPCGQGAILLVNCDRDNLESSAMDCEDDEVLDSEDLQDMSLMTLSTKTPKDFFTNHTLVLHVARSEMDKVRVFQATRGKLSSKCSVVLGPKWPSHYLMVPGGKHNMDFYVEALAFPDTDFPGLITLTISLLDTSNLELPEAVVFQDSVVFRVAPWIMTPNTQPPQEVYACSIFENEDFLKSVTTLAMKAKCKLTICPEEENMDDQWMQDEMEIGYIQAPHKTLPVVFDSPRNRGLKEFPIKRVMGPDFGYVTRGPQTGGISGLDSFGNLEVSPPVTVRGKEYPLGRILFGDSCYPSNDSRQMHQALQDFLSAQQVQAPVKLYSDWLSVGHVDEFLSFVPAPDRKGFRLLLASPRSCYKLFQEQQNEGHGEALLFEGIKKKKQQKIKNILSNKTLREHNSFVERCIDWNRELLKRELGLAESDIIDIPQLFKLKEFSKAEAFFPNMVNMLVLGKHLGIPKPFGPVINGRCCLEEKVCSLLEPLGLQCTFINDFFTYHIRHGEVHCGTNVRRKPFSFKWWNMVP
row,IC50 [µM],Structure (SMILES)
1,0.051,"COc1cc(C(=O)N2CC[C@@H](OC)[C@@H](N)C2)cc2nc(-c3cc4ccc5nc4n3CCCCCc3ccccc3C(=O)N(C)[C@@H]5C)n(C)c12 [Example 654, (2~{R})-17-[5-[(3~{S},4~{R})-3-amino-4-methoxy-piperidine-1-carbonyl]-7-methoxy-1-methyl-benzimidazol-2-yl]-2,3-dimethyl-3,16,22-triazatetracyclo[14.5.2.0^ {5,10).0^{19,23}] tricosa-1(22),5,7,9,17,19(23), 20-heptaen-4-one]"
2,0.093,"COCCn1c(-c2cc3ccc4nc3n2CCCCC[C@@H]2C[C@H]2C(=O)N[C@@H]4C)nc2cc(C(=O)N3CC[C@@H](OC)[C@@H](N)C3)cc(F)c21 [Example 436, (2~{R},5~{R},7~{R})-14-[5-[(3~{S},4~{R})-3-amino-4-methoxy-piperidine-1-carbonyl]-7-fluoro-1-(2-methoxyethyl)benzimidazol-2-yl]-2-methyl-3,13,19-triazatetracyclo[11.5.2.0^{5,7}.0^{16,20}] icosa-1(19),14,16(20),17-tetraen-4-one]"
3,0.479,"COc1cc(C(=O)N2C[C@@H]3C[C@@H]3[C@@H](N)C2)cc2nc(-c3cc4ccc5nc4n3CCCCCCC(C)(C)C(=O)N[C@@H]5C)n(C)c12 [Example 542, (11~{R})-17-[5-[(1~ {R},5~{R},6~{S})-5-amino-3-azabicyclo [4.1.0]heptane-3-carbonyl]-7-methoxy-1-methyl-benzimidazol-2-yl]-8,8,11-trimethyl-1,10,19-triazatricyclo [10.5.2.0^{15,18}]nonadeca-12(19),13,15(18), 16-tetraen-9-one]"
4,0.037,"COc1cc(C(=O)N2C[C@H](N)[C@@H]3CC[C@H]2C3)cc2nc(-c3cc4ccc5nc4n3CCCCCC[C@](F)(c3cccc(Cl)n3)C(=O)N[C@@H]5C)n(C)c12 [Example 888, (8~{S},11~{R})-17-[5-[(1~{S},4~{R},5~{R})-4-amino-2-azabicyclo[3.2.1]octane-2-carbonyl]-7-methoxy-1-methyl-benzimidazol-2-yl]-8-(6-chloro-2-pyridyl)-8-fluoro-11-methyl-1,10,19-triazatricyclo[10.5.2.0^ {15,18}]nonadeca-12(19), 13,15(18),16-tetraen-9-one]"
5,0.342,"COc1cc(C(=O)N2C[C@H](N)C[C@@H](F)[C@@H]2C)cc2nc(-c3cc4ccc5nc4n3CC(F)(F)CCCC3C[C@H]3C(=O)N[C@@H]5C)n(C)c12 (stereo partly shown) [Example 792, (2~{R},5~{R),7~{R})-14-[5-[(2~{S),3~{R},5~{R})-5-amino-3-fluoro-2-methyl-piperidine-1-carbonyl]-7-methoxy-1-methyl-benzimidazol-2-yl]-11,11-difluoro-2-methyl-3,13,19-triazatetracyclo [11.5.2.0^{5,7}.0^{16,20}] icosa-1(18),14,16,19-tetraen-4-one]"
6,0.054,"COc1cc(C(=O)N2C[C@H](N)[C@@H]3CC[C@H]2C3)cc2nc(-c3cc4ccc5nc4n3CCCCCC[C@](c3ccccn3)(C(F)F)C(=O)N[C@@H]5C)n(C)c12 [Example 889, (8~{R},11~{R})-17-[5-[(1~{S},4~{R},5~{R})-4-amino-2-azabicyclo[3.2.1]octane-2-carbonyl]-7-methoxy-1-methyl-benzimidazol-2-yl]-8-(difluoromethyl)-11-methyl-8-(2-pyridyl)-1,10,19-triazatricyclo [10.5.2.0^{15,18}]nonadeca-12(19),13,15(18),16-tetraen-9-one]"
7,0.221,"COc1cc(C(=O)N2C[C@H]3CC[C@@H]2[C@@H]3N)cc2nc(-c3cc4ccc5nc4n3CCCCCCCCCC(=O)N[C@@H]5C)c(C)n12 [Example 290, (13~{R})-19-[7-[(1~{R},4~{R},7~{R})-7-amino-2-azabicyclo[2.2.1]heptane-2-carbonyl]-5-methoxy-3-methyl-imidazo[1,2-a]pyridin-2-yl]-13-methyl-1,12,21-triazatricyclo[12.5.2.0^{17,20}]henicosa-14(21),15,17(20),18-tetraen-11-one]"
8,0.06,"COc1cc(C(=O)N[C@H]2CNCC[C@@H]2F)cc2nc(-c3cc4ccc5nc4n3CCCCCc3cccc(F)c3C(=O)N[C@@H]5C)n(C)c12 [Example 345, 2-[(2~{R})-6-fluoro-2-methyl-4-oxo-3,16,22-triazatetracyclo[14.5.2.0^{5,10}.0^{19,23)]tricosa-1(22),5,7,9,17,19(23),20-heptaen-17-yl]-~{N}-[(3~{S},4~{S})-4-fluoro-3-piperidyl]-7-methoxy-1-methyl-benzimidazole-5-carboxamide]"
9,0.078,"COc1cc(C(=O)N2CC[C@@H](OC)[C@@H](N)C2)cc2nc(-c3cc4ccc5nc4n3CCCCC[C@H]3C[C@H]3C(=O)N[C@@H]5C)n(C)c12 [Example 525, (2~{R},5~{R},7~ {S})-14-[5-[(3~{S},4~{R})-3-amino-4-methoxy-piperidine-1-carbonyl]-7-methoxy-1-methyl-benzimidazol-2-yl]-2-methyl-3,13,19-triazatetracyclo [11.5.2.0^{5,7}.0^{16,20}] icosa-1(19),14,16(20), 17-tetraen-4-one]"
10,0.068,"CO[C@@H]1CCN(C(=O)c2cc(F)c3c(c2)nc(-c2cc4ccc5nc4n2CCCCCc2ccnc(C)c2C(=O)N[C@@H]5C)n3C2CC2)C[C@@H]1N [Example 698, (2~{R})-17-[5-[(3~{S),4~ {R})-3-amino-4-methoxy-piperidine-1-carbonyl]-1-cyclopropyl-7-fluoro-benzimidazol-2-yl]-2,6-dimethyl-3,7,16,22-tetrazatetracyclo[14.5.2.0^ {5,10).0^{19,23}]tricosa-1(22),5(10),6,8,17,19(23),20-heptaen-4-one]"
11,0.053,"COc1cc(C(=O)N2[C@H]3CC[C@@H]2[C@H](N)C3)cc2nc(-c3cc4ccc5nc4n3CC[C@H]3C[C@H]3COCCC(=O)N[C@@H]5C)n(C)c12 [Example 338, (4~{R},6~{R},13~{R})-19-[5-[(1~{R},2~{R},4~{S})-2-amino-7-azabicyclo[2.2.1]heptane-7-carbonyl]-7-methoxy-1-methyl-benzimidazol-2-yl]-13-methyl-8-oxa-1,12,21-triazatetracyclo[12.5.2.0^{4,6}.0^{17,20}] henicosa-14(21),15,17(20),18-tetraen-11-one]"
12,0.047,"C[C@H]1NC(=O)[C@@H]2C[C@H]2CCCC(F)(F)Cn2c(-c3nc4cc(C(=O)N5C[C@H](N)[C@@H]6CC[C@H]5C6)cc(F)c4n3[C@H]3C[C@@H]3F)cc3ccc1nc32 [Example 479, (2~{R},5~{R},7~{R})-14-[5-[(1~{S},4~{R},5~{R})-4-amino-2-azabicyclo[3.2.1]octane-2-carbonyl]-7-fluoro-1-[(1~{S},2~{S})-2-fluorocyclopropyl]benzimidazol-2-yl]-11,11-difluoro-2-methyl-3,13,19-triazatetracyclo[11.5.2.0^{5,7}.0^{16,20}] icosa-1(19),14,16(20),17-tetraen-4-one]"
13,0.043,"COc1cc(C(=O)N2[C@H]3CC[C@@H]2[C@H](N)C3)cc2nc(-c3cc4ccc5nc4n3CCCC[C@H]3C[C@@H]3C(=O)N[C@@H]5C)n(C)c12 [Example 152, (2~{R},5~{S},7~{S})-13-[5-[(1~{R},2~{R},4~{S})-2-amino-7-azabicyclo[2.2.1]heptane-7-carbonyl]-7-methoxy-1-methyl-benzimidazol-2-yl]-2-methyl-3,12,18-triazatetracyclo[10.5.2.0^{5,7}.0^{15,19}] nonadeca-1(18),13,15(19),16-tetraen-4-one]"
